# Source: patent US9371320B2, “Heterocyclic compound” (TAKEDA PHARMACEUTICAL COMPANY LIMITED, priority 2012, dated 2016)
# Where two headings read alike, the source gives them in different places.
# Assays:
# JAK1 = biological target: T1, JAK1 (Homo sapiens, UniProt P23458); assay: JAK1 enzyme inhibition test (LANCE method); assay type: biochemical; conditions: for inhibition at 1 µM: test compound 1 μM, read-out: Inhibitory rate (%) JAK1 1 μM; for inhibition at 10 µM: read-out: Inhibitory rate (%) JAK1 10 μM
# T1 construct: purchased Invitrogen
# Outline: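 TR-FRET (LANCE) kinase assay using JAK1 at 187.5 ng/mL, ULight-JAK1 peptide at 300 nM and ATP at 150 μM, given as solution concentrations before mixing. Buffer was 50 mM HEPES pH 7.5 with 10 mM MgCl2 and 2 mM DTT, and the reaction ran 1 h at room temperature. Eu anti-phosphotyrosine signal at 665 nm was expressed relative to a no-enzyme well, taken as 100% inhibition.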
# Tyk2 = biological target: T2, Tyk2 (Homo sapiens, UniProt P29597); assay: Tyk2 enzyme inhibition test (LANCE method); assay type: biochemical; conditions: for inhibition at 1 µM / Inhibitory rate (%) Tyk2 1 μM: test compound 1 μM; for inhibition at 1 µM: read-out: Inhibitory rate (%) Tyk2 1 μM; for inhibition at 10 µM: test compound 10 μM, read-out: Inhibitory rate (%) Tyk2 10 μM
# T2 construct: purchased Invitrogen
# Outline: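 Recombinant Tyk2 (375 ng/mL stock) with ULight-JAK1 peptide (300 nM stock) and ATP (30 μM stock) in HEPES pH 7.5/MgCl2/EGTA/DTT buffer, 1 h at room temperature. Stopped with EDTA plus Eu-anti-phosphotyrosine antibody; TR-FRET read at 665 nm after 1 h. No-enzyme wells define 100% inhibition.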
# [1] = test compound 10 μM (Ex. 182-220), beside Tyk2 1 μM
# T1 sequence (P23458 whole entry): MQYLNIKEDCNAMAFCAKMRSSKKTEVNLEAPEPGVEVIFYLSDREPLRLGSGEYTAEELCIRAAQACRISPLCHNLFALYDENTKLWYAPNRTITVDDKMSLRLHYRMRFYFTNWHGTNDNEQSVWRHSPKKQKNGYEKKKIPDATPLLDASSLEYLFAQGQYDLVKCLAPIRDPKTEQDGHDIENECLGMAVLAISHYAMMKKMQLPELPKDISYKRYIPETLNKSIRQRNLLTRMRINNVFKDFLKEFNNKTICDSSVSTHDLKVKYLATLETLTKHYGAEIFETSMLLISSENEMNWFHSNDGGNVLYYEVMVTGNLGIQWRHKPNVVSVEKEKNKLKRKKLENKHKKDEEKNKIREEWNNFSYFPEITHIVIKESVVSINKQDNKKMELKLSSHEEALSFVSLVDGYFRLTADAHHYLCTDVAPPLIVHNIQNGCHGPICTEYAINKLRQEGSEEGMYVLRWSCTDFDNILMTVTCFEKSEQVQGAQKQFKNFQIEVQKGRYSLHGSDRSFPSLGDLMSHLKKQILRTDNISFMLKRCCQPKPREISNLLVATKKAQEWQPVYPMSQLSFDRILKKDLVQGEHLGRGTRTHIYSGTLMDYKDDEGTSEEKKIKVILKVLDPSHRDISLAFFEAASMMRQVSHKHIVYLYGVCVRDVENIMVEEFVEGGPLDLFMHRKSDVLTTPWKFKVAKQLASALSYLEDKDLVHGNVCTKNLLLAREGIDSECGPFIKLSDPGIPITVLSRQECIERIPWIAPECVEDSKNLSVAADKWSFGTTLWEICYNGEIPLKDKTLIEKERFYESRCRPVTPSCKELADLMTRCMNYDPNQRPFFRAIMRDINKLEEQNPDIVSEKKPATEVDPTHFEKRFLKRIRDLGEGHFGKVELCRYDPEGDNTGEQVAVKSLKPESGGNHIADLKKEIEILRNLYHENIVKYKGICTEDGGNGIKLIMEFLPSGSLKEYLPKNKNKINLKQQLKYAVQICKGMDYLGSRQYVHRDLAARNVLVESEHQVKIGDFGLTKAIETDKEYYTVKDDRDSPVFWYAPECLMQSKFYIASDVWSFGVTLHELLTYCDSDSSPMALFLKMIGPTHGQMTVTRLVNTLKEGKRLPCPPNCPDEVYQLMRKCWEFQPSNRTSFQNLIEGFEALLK
# T2 sequence (P29597 whole entry): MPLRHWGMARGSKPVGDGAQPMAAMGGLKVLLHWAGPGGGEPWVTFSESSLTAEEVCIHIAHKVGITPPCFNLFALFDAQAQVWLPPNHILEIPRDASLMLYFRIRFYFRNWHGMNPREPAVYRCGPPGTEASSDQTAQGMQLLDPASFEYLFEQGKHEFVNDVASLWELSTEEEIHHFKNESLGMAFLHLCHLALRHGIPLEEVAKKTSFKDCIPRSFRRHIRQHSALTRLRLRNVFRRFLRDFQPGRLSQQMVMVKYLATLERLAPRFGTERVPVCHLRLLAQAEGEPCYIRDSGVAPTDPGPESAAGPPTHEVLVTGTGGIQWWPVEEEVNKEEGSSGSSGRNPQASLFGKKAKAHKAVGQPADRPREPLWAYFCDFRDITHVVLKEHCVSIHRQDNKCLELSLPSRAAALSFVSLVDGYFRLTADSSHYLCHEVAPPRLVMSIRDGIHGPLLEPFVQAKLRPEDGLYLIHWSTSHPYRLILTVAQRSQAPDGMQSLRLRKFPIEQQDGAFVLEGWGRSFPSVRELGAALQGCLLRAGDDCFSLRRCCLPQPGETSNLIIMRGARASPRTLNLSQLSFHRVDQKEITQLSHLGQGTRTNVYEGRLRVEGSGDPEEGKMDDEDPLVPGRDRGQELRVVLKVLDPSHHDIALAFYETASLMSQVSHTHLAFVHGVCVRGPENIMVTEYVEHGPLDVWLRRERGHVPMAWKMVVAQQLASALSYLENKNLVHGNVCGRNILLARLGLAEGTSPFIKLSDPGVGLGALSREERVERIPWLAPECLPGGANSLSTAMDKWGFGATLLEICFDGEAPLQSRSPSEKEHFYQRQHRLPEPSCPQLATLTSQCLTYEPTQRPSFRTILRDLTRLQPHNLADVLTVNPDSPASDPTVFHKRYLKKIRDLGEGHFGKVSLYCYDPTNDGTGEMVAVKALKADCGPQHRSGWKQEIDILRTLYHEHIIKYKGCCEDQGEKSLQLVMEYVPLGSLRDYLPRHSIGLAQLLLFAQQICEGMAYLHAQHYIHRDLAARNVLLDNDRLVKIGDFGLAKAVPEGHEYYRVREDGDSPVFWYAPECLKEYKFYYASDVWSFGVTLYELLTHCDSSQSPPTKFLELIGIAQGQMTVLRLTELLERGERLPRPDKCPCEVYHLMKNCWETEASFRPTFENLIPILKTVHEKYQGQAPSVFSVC
inhibition at 1 µM (JAK1),inhibition at 1 µM (Tyk2),SMILES,further results
28%,92%,"Cc1ccccc1-c1nn(-c2csc(C(=O)O)c2)c2c(=O)[nH]cc(C#N)c12 [Example 69, 4-(4-cyano-3-(2-methylphenyl)-7-oxo-6,7-dihydro-1H-pyrazolo[3,4-c]pyridin-1-yl)thiophene-2-carboxylic acid]",
96%,70%,"CC(C)(C)n1nc(Nc2cccc(S(N)(=O)=O)c2)c2c(=O)[nH]ccc21 [Example 248, 3-((1-tert-butyl-4-oxo-4,5-dihydro-1H-pyrazolo[4,3-c]pyridin-3-yl)amino)benzenesulfonamide]",
70%,82%,"NS(=O)(=O)c1cccc(Nc2nn(C3CCCC3)c3c(Br)c[nH]c(=O)c23)c1 [Example 285, 3-((7-bromo-1-cyclopentyl-4-oxo-4,5-dihydro-1H-pyrazolo[4,3-c]pyridin-3-yl)amino)benzenesulfonamide]",
35%,33%,"CCC(COC)n1cc(-c2ccc(C#N)cc2)c2c(=O)[nH]ccc21 (stereo not shown) [Example 24, 4-(1-(1-methoxybutan-2-yl)-4-oxo-4,5-dihydro-1H-pyrrolo[3,2-c]pyridin-3-yl)benzonitrile]",
99%,99%,"CC(=O)N1CCC(c2ccc(-c3nn(-c4c(F)cccc4F)c4cc[nH]c(=O)c34)cc2)C(F)(F)C1 (stereo not shown) [Example 316, 3-(4-(1-acetyl-3,3-difluoropiperidin-4-yl)phenyl)-1-(2,6-difluorophenyl)-1,5-dihydro-4H-pyrazolo[4,3-c]pyridin-4-one]",
97%,99%,"N#Cc1c[nH]c(=O)c2c(-c3csc(CC(N)=O)c3)cn(C3CCCC3)c12 [Example 97, 2-(4-(7-cyano-1-cyclopentyl-4-oxo-4,5-dihydro-1H-pyrrolo[3,2-c]pyridin-3-yl)-2-thienyl)acetamide]",
55%,66%,"O=c1[nH]ccc2c(-c3ccccc3)nn(-c3ccsc3)c12 [Example 11, 3-phenyl-1-(3-thienyl)-1,6-dihydro-7H-pyrazolo[3,4-c]pyridin-7-one]",
89%,98%,"NC(=O)Cc1ccc(-c2nn(-c3c(F)cccc3F)c3c(Br)c[nH]c(=O)c23)cc1 [Example 112, 2-(4-(7-bromo-1-(2,6-difluorophenyl)-4-oxo-4,5-dihydro-1H-pyrazolo[4,3-c]pyridin-3-yl)phenyl)acetamide]",
93%,99%,"N#Cc1cccc(F)c1-n1nc(-c2ccc(N3CCOCC3)cc2)c2c(=O)[nH]ccc21 [Example 305, 3-fluoro-2-(3-(4-(morpholin-4-yl)phenyl)-4-oxo-4,5-dihydro-1H-pyrazolo[4,3-c]pyridin-1-yl)benzonitrile]",
80%,99%,"CNC(=O)COc1ccc(-c2nn(-c3c(F)cccc3F)c3c(Cl)c[nH]c(=O)c23)cc1 [Example 221, 2-(4-(7-chloro-1-(2,6-difluorophenyl)-4-oxo-4,5-dihydro-1H-pyrazolo[4,3-c]pyridin-3-yl)phenoxy)-N-methylacetamide]",
,99%,"O=C1OCCN1Cc1ccc(-c2nn(-c3c(F)cccc3F)c3c(Cl)c[nH]c(=O)c23)cc1 [Example 186, 7-chloro-1-(2,6-difluorophenyl)-3-(4-((2-oxo-1,3-oxazolidin-3-yl)methyl)phenyl)-1,5-dihydro-4H-pyrazolo[4,3-c]pyridin-4-one]",inhibition at 10 µM (JAK1; [1]): 82%
,,"CC1(O)CCC(n2nc(-c3csc(C(N)=O)c3)c3c(=O)[nH]ccc32)CC1 (stereo not shown) [Example 199, 4-(1-(4-hydroxy-4-methylcyclohexyl)-4-oxo-4,5-dihydro-1H-pyrazolo[4,3-c]pyridin-3-yl)thiophene-2-carboxamide]",Inhibitory rate (%) JAK1 10 μM (JAK1; [1]): 99%; Inhibitory rate (%) Tyk2 1 μM (Tyk2): 100%
,,"CC(C)(C)n1nc(NC(=O)c2ccccc2)c2c(=O)[nH]ccc21 [Example 265, N-(1-tert-butyl-4-oxo-4,5-dihydro-1H-pyrazolo[4,3-c]pyridin-3-yl)benzamide]",inhibition at 10 µM (JAK1; test compound 10 μM): 21%; inhibition at 10 µM (Tyk2): 24%
23%,75%,"COC(=O)c1cc(-n2nc(-c3ccccc3C)c3c(Br)c[nH]c(=O)c32)cs1 [Example 78, methyl 4-(4-bromo-3-(2-methylphenyl)-7-oxo-6,7-dihydro-1H-pyrazolo[3,4-c]pyridin-1-yl)thiophene-2-carboxylate]",
,98%,"N#Cc1cc(-c2nn(-c3c(F)cccc3F)c3c(Cl)c[nH]c(=O)c23)ccc1N1CCOCC1 [Example 200, 5-(7-chloro-1-(2,6-difluorophenyl)-4-oxo-4,5-dihydro-1H-pyrazolo[4,3-c]pyridin-3-yl)-2-(morpholin-4-yl)benzonitrile]",inhibition at 10 µM (JAK1; [1]): 22%
100%,99%,"NS(=O)(=O)c1ccc(-c2nn(C3CCCC3)c3cc[nH]c(=O)c23)cc1 [Example 92, 4-(1-cyclopentyl-4-oxo-4,5-dihydro-1H-pyrazolo[4,3-c]pyridin-3-yl)benzenesulfonamide]",
,99%,"NC(=O)Cn1cc(-c2nn(-c3c(F)cccc3F)c3c(Cl)c[nH]c(=O)c23)cn1 [Example 190, 2-(4-(7-chloro-1-(2,6-difluorophenyl)-4-oxo-4,5-dihydro-1H-pyrazolo[4,3-c]pyridin-3-yl)-1H-pyrazol-1-yl)acetamide]",inhibition at 10 µM (JAK1; [1]): 81%
,,"NS(=O)(=O)c1ccc(Cn2nc(-c3ccccc3)c3cc[nH]c(=O)c32)cc1 [Example 19, 4-((7-oxo-3-phenyl-6,7-dihydro-1H-pyrazolo[3,4-c]pyridin-1-yl)methyl)benzenesulfonamide]",inhibition at 10 µM (JAK1; test compound 10 μM): 44%; inhibition at 10 µM (Tyk2): 27%
95%,99%,"CC(=O)Nc1ccc(-c2nn(-c3c(F)cccc3F)c3cc[nH]c(=O)c23)cc1 [Example 277, N-(4-(1-(2,6-difluorophenyl)-4-oxo-4,5-dihydro-1H-pyrazolo[4,3-c]pyridin-3-yl)phenyl)acetamide]",
98%,98%,"CCC(CC)n1cc(-c2csc(C(N)=O)c2)c2c(=O)[nH]ccc21 [Example 8, 4-(4-oxo-1-(pentan-3-yl)-4,5-dihydro-1H-pyrrolo[3,2-c]pyridin-3-yl)thiophene-2-carboxamide]",
88%,66%,"NS(=O)(=O)c1ccc(-c2nn(CC3COC3)c3cc[nH]c(=O)c23)cc1 [Example 105, 4-(1-(oxetan-3-ylmethyl)-4-oxo-4,5-dihydro-1H-pyrazolo[4,3-c]pyridin-3-yl)benzenesulfonamide]",
95%,,"NS(=O)(=O)c1ccc(-c2nn(C3CCOC3)c3cc[nH]c(=O)c23)cc1 (stereo not shown) [Example 82, 4-(4-oxo-1-(tetrahydrofuran-3-yl)-4,5-dihydro-1H-pyrazolo[4,3-c]pyridin-3-yl)benzenesulfonamide]",Inhibitory rate (%) Tyk2 1 μM (Tyk2): 78%
66%,56%,"O=c1[nH]ccc2c1c(-c1ccc3nonc3c1)nn2C1CCCC1 [Example 59, 3-(2,1,3-benzoxadiazol-5-yl)-1-cyclopentyl-1,5-dihydro-4H-pyrazolo[4,3-c]pyridin-4-one]",
43%,46%,"O=c1[nH]ccc2c1c(-c1cccc(C(F)(F)F)c1)nn2C1CCCC1 [Example 52, 1-cyclopentyl-3-(3-(trifluoromethyl)phenyl)-1,5-dihydro-4H-pyrazolo[4,3-c]pyridin-4-one]",
99%,97%,"NS(=O)(=O)c1ccc(-c2nn(-c3c(F)cccc3F)c3cc[nH]c(=O)c23)cc1 [Example 35, 4-(1-(2,6-difluorophenyl)-4-oxo-4,5-dihydro-1H-pyrazolo[4,3-c]pyridin-3-yl)benzenesulfonamide]",
93%,92%,"NC(=O)c1cccc(-c2nn(C3CCCC3)c3cc[nH]c(=O)c23)c1 [Example 143, 3-(1-cyclopentyl-4-oxo-4,5-dihydro-1H-pyrazolo[4,3-c]pyridin-3-yl)benzamide]",
69%,98%,"CCNC(=O)n1cc(-c2nn(-c3c(F)cccc3F)c3c(Cl)c[nH]c(=O)c23)cn1 [Example 222, 4-(7-chloro-1-(2,6-difluorophenyl)-4-oxo-4,5-dihydro-1H-pyrazolo[4,3-c]pyridin-3-yl)-N-ethyl-1H-pyrazole-1-carboxamide]",
99%,100%,"CNC(=O)c1cc(-c2nn(-c3c(F)cccc3F)c3c(Br)c[nH]c(=O)c23)cs1 [Example 145, 4-(7-bromo-1-(2,6-difluorophenyl)-4-oxo-4,5-dihydro-1H-pyrazolo[4,3-c]pyridin-3-yl)-N-methylthiophene-2-carboxamide]",
96%,98%,"N#Cc1c[nH]c(=O)c2c(-c3csc(C(N)=O)c3)nn(C3CCCC3)c12 [Example 165, 4-(7-cyano-1-cyclopentyl-4-oxo-4,5-dihydro-1H-pyrazolo[4,3-c]pyridin-3-yl)thiophene-2-carboxamide]",
